Several values for one entry are separate records, joined by “and”; a condition that tells them apart may be missing. Equal entries are not always repeated.
Key:
Jak2 [1] = target: T1, Jak2 (Mus musculus, UniProt Q62120); assay: In vitro kinase assay with Jak2 immunoprecipitated from cell lysates (32P-gamma-ATP, autoradiography); type: biochemical; conditions: genestein at 0.1 mM in the in vitro kinase assay
T1 construct: endogenous in cells; host or cells: mammalian cells stimulated with EPO or IL-3
Procedure: In this assay, purified Jak2 is precipitated from cell lysates using Jak2-specific antisera bound to protein A-sepharose. The immunoprecipitated Jak2 is then washed with kinase buffer (50 mM NaCl, 5 mM MgCl2, 5 mM MnCl2, 0.1 mM Na3VO4, 10 mM HEPES pH 7.4) and subsequently incubated for 30 minutes at room temperature with an equal volume of kinase buffer containing 0.25 mCi/ml ^32P-gamma-ATP. After extensive washing, proteins are eluted with sample buffer for SDS-PAGE and separated on 7% gels. ^32P-containing proteins are then visualized by autoradiography.
Thus, activation of the Jak2 catalytic activity is correlated with the biological activities of these cytokines.

[2] = test system: EPO-induced cell proliferation; conditions: cited from earlier work
[3] = test system: tyrosine kinase activity associated with the CNTF receptor complex (gp130, LIFRβ); assay: In vitro tyrosine kinase activity associated with the purified CNTF receptor complex; type: biochemical; conditions: compared with CNTF-treated intact cells
Procedure: Cell lines were passaged and maintained as previously described (Ip et al., Cell 69:1121-1132 (1992). COS cell transfections were carried out by a DEAE protocol (Davis et al., Science 260:1805-1808 (1993)). Plates of cells were starved in serum-free RPMI medium for 2-4 hours, then stimulated with 50 ng/ml of the indicated factor for 5 minutes. Cells were harvested and lysed as previously described (Stahl et al., J. Biol. Chem. 268:7628-7631 (1993)), except that 1% Brij 96 (Sigma) or 1% NP-40 (Boehringer) was used as indicated. Immunoprecipitation, electrophoresis, and anti-phosphotyrosine immunoblotting with monoclonal antibody 4G10 (Upstate Biotechnology) and detection via enhanced chemiluminescence (Amersham) was carried out as previously described (Id). For in vitro kinase assays, the washed beads were incubated for 15 min at room temperature in 20 mM Hepes (pH 7.2), 10 mM MnCl2, 30 mM sodium orthovanadate and 10 MCi of (g-^32P)ATP (NEN DUPONT). Electrophoresis sample buffer was added and the samples were boiled, subjected to SDS PAGE, and electroblotted to PVDF. The membrane was then incubated in 1 M NaOH at 65° C. for 60 min to destroy serine and threonine phosphate before autoradiography.

Jak2 [4] = assay: GH-dependent tyrosyl phosphorylation of Jak2 (αJak2 immunoprecipitation, αPY immunoblot) in 3T3-F442A fibroblasts; type: cell-based
Procedure: Jak2 is a tyrosine kinase of the correct size (Mr of ˜130,000; see example 1) to be the GHR-associated kinase and was therefore tested for its ability to be phosphorylated in response to GH. Solubilized proteins from GH-treated 3T3-F442A fibroblasts were immunoprecipitated using antiserum to Jak2 (αJak2) and analyzed by anti-phosphotyrosine antibody (αPY) immunoblot. Cells were incubated with varying physiological concentrations of GH in ranging in 10-fold increments from 0.5 ng/ml to 500 ng/ml (the standard concentration used) for 0, 0.5, 5, 50, and 60 minutes.
Cells were grown to confluence and deprived of serum overnight as described previously (Wang, X. et al., J. Biol. Chem. 268:3573-3579 (1993)). Cells were incubated for the indicated times with hormone or growth factor as indicated at 37° C. in 95% air, 5% CO2, rinsed with three changes of ice-cold 10 mM sodium phosphate (pH 7.4), 137 mM NaCl, 1 mM Na3VO4, and scraped in lysis buffer (50 mM Tris (pH 7.5), 0.1% Triton X-100, 137 mM NaCl, 2 mM EGTA, 1 mM Na3VO4, 1 mM phenylmethylsulfonyl fluoride, 10 μg/ml aprotinin, and 10 μg/ml leupeptin) on ice. Cell lysates were centrifuged at 12,000×g for 10 min, and the resulting supernatants were incubated on ice 90 min with the indicated antibody. […]

T1 sequence (Q62120 whole entry): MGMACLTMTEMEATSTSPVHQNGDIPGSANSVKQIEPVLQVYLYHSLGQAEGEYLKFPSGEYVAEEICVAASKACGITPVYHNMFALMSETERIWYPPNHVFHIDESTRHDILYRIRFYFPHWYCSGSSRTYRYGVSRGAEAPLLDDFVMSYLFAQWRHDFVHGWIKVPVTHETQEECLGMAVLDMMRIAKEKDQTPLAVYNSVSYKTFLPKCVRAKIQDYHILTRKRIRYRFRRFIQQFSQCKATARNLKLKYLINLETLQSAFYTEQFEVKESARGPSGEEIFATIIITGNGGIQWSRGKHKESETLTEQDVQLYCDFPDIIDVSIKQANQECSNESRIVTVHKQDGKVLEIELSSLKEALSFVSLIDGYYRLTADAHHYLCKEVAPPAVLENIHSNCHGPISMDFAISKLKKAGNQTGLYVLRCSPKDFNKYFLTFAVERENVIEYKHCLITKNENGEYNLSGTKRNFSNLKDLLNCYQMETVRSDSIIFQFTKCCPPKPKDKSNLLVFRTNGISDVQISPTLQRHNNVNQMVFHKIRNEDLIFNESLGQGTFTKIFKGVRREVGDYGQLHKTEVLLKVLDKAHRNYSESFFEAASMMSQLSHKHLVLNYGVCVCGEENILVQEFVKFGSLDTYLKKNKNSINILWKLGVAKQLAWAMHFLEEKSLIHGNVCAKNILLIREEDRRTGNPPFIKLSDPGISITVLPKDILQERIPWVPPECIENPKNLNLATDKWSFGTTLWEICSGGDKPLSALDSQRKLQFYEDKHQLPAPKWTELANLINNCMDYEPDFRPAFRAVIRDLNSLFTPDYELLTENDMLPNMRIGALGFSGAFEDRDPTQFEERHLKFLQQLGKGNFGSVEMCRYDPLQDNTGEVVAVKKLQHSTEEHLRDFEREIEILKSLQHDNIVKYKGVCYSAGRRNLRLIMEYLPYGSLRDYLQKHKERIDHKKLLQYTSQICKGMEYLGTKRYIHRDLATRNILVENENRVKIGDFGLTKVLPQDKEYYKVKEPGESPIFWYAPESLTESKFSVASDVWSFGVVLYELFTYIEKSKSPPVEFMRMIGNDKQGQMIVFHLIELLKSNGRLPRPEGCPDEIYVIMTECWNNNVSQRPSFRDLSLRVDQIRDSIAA

Q: What does the source list for `O=c1c(-c2ccc(O)cc2)coc2cc(O)cc(O)c12` [genestein]?
A: reduction in the tyrosine kinase activity of Jak2 (Jak2 [1]): 2 fold; effect on ability of EPO to stimulate cell growth [2]: inhibit the ability of EPO to stimulate cell growth

Q: Which “sensitivity of receptor-associated in vitro kinase activity to staurosporine” value [3] does the source give for `CN[C@@H]1C[C@H]2O[C@@](C)([C@@H]1OC)n1c3ccccc3c3c4c(c5c6ccccc6n2c5c31)C(=O)NC4` [staurosporine] here?
A: same sensitivity to staurosporine as that observed upon addition of CNTF to intact cells

Q: Which results are given for “GH: Recombinant human GH (hGH) provided by Eli Lilly”?
A: earliest time at which GH-dependent tyrosyl phosphorylation of Jak2 was clearly evident (Jak2 [4]): 30 s; lowest GH concentration at which tyrosyl phosphorylation of Jak2 was clearly evident (Jak2 [4]): 5.0 ng/ml and 230 pM

Reference: patent US6969760B2, “Jak kinases and regulation of cytokine signal transduction” (St. Jude Children's Research Hospital, priority 1993, dated 2005)
